Experimental data published in US12595504B2, “Methods for screening compounds for bactericidal activity and for determining the sensitivity of bacterial samples” (priority 2020, dated 2026).
Values after ≈ are worked out from the molar mass of the structure shown. Read-outs that look alike come from different tables or passages of the source.

Tests used:
Escherichia coli MG1655 = test: Antibiotic MIC determination (serial twofold dilutions, OD600 during 17 hours at 37° C.); format: cell-based; conditions: Escherichia coli
Description: The Minimal Inhibitory Concentration (MIC) of the antibiotics was determined under the same culture conditions as the tests using the ATP assay kit. […] An exponentially growing culture (OD600=0.3) was added to each well (60 μl/well) of a sterile microtiter plate containing the test concentration of antibiotic (40 μl/well). The volume was completed to 120 μl with medium and OD600 nm measurements were performed using a microtiter plate reader (Infinite 200 PRO, TECAN) during 17 hours at 37° C.
In all the following experiments, the MIC values were measured for each antibiotic with parameters such as temperature, OD600 and equipment identical to those used for the bioluminescence assay.

[1] = system: E. coli MG1655 reporter cells; format: cell-based, Escherichia coli; conditions: for Lag before ATP release (shortest, incompressible value): highest concentrations tested
Description: The classical luciferase was from Molecular Probes (ATP Determination Kit (A22066)). The thermostable luciferase was from “CheckLite AT100” (kikkoman). The Luciferin-luciferase reagents were prepared following manufacturer instructions. Bacteria from exponentially growing cultures (OD600=0.3) were added to each well (60 μl/well) of a black 96-microtiter plate (Greiner Bio-one, 655076) and 20 μl of the luciferin-luciferase reagent solution was added. The microtiter plate was incubated 5 min at 37° C. for reaction with the luciferase to eliminate traces of extracellular ATP. Then 40 μl of antibiotic solution (3 times concentrated) prepared in the culture medium were added. Bioluminescence of each well was monitored for 4 hours under shaking (218 rpm) and at 28 or 37° C., depending on the experiments (see legends of Figures). The reagent stability in presence or absence of antibiotics was checked in control experiments without bacteria but with 4 pmoles of ATP. Tests were also performed in 384-microtiter plates (Greiner Bio-one, 784076).
Aminoglycosides are bactericidal antibiotics causing translational miscoding with lethal consequences for the cell. Leakage of small molecules following an aminoglycoside shock was previously identified by different methods including radiolabelling. Therefore, the inventors investigated the response of live cells to aminoglycoside stress.

[2] = MG1655, read-out: MIC in MOPS glucose 0.4%, MOPS minimal medium glucose 0.4%, 37° C.
[3] = MG1655, LB medium, OD600 0.15 final, 37° C., read-out: MIC in LB
[4] = antibiotic at 25 μg/mL, LB, 37° C.
[5] = antibiotic at 50 μg/mL, LB, 37° C.
[6] = antibiotic at 100 μg/mL, LB, 37° C.
[7] = antibiotic at 200 μg/mL, LB, 37° C.
[8] = antibiotic at 6.25 μg/mL, LB, 37° C.
[9] = antibiotic at 12.5 μg/mL, LB, 37° C.

Compound | MIC (Escherichia coli MG1655; [2]) | MIC (Escherichia coli MG1655; [3]) | Lag time before ATP [1, 4] | Lag time before ATP [1, 5] | Lag time before ATP [1, 6] | Lag time before ATP [1, 9] | further results
CC(C)(O/N=C(\C(=O)N[C@@H]1C(=O)N2C(C(=O)[O-])=C(C[n+]3ccccc3)CS[C@H]12)c1csc(N)n1)C(=O)O [Ceftazidime] | 100 µg/mL (≈ 183 µM) | 100 µg/mL (≈ 183 µM) | 40.3 min | 8.6 min | 8.3 min | – | Lag time before ATP [1, 7]: 8.0 min; Lag time before ATP ([1]; antibiotic at 400 μg/mL, LB, 37° C.): 7.8 min
CO/N=C(\C(=O)N[C@@H]1C(=O)N2C(C(=O)O)=C(CSc3nc(=O)c(=O)[nH]n3C)CS[C@H]12)c1csc(N)n1 [Ceftriaxone] | 6.25 µg/mL (≈ 11.3 µM) | 12.5 µg/mL (≈ 22.5 µM) | 16.5 min | 13.9 min | – | 19.2 min | Lag time before ATP ([1]; antibiotic at 3.125 μg/mL, LB, 37° C.): 29.7 min; Lag time before ATP [1, 8]: 21.2 min
CC1=C(C(=O)O)N2C(=O)[C@@H](NC(=O)[C@H](N)c3ccccc3)[C@H]2SC1 [Cephalexin] | 17.4 µg/mL (≈ 50.1 µM) | 34.7 µg/mL (≈ 99.9 µM) | – | – | – | – | Shape of ATP release trace ([1]; LB medium, 37° C., FIG. 8): multiphasic; Shape of ATP release trace ([1]; MOPS minimal medium (glucose 0.4%), FIG. 11): monophasic; Lag time before ATP ([1]; antibiotic at 8.8 μg/mL, LB, 37° C.): 34.3 min; Lag time before ATP ([1]; antibiotic at 17.5 μg/mL, LB, 37° C.): 9.45 min; Lag time before ATP ([1]; antibiotic at 35 μg/mL, LB, 37° C.): 5 min; Lag time before ATP ([1]; antibiotic at 70 μg/mL, LB, 37° C.): 3.6 min; Lag time before ATP ([1]; antibiotic at 140 μg/mL, LB, 37° C.): 3.6 min; Lag before ATP release (shortest, incompressible value) ([1]; LB, 37° C.): 3.6 min
O=C(N[C@H](CO)[C@H](O)c1ccc([N+](=O)[O-])cc1)C(Cl)Cl [Chloramphenicol] | 25 µg/mL (≈ 77.4 µM) | 25 µg/mL (≈ 77.4 µM) | – | – | – | – | ATP leakage ([1]; high concentrations, twice or four times the MIC, LB, FIG. 9): important leakage
CC[C@H]1OC(=O)[C@H](C)[C@@H](O[C@H]2C[C@@](C)(OC)[C@@H](O)[C@H](C)O2)[C@H](C)[C@@H](O[C@@H]2O[C@H](C)C[C@H](N(C)C)[C@H]2O)[C@](C)(O)C[C@@H](C)C(=O)[C@H](C)[C@@H](O)[C@]1(C)O [Erythromycin] | 1600 µg/mL (≈ 2180 µM) | 400 µg/mL (≈ 545 µM) | – | – | – | – | Amplitude of ATP release ([1]; bacteriostatic antibiotics, LB, FIG. 9): very weak amplitude
C[C@@H]1O[C@@H]1P(=O)(O)O [Fosfomycin] | 100 µg/mL (≈ 724 µM) | 50 µg/mL (≈ 362 µM) | 26.2 min | 21.8 min | 20.2 min | 28.6 min | Lag time before ATP [1, 7]: 18.6 min
NC[C@H]1O[C@H](O[C@H]2[C@H](O)[C@@H](O[C@H]3O[C@H](CO)[C@@H](O)[C@H](N)[C@H]3O)[C@H](N)C[C@@H]2N)[C@H](O)[C@@H](O)[C@@H]1O [Kanamycin] | 3 µg/mL (≈ 6.19 µM) | 25 µg/mL (≈ 51.6 µM) | 16 min | 11 min | 8 min | 25 min | Lag time before ATP [1, 8]: 50 min; Lag before ATP release (shortest, incompressible value) ([1]; LB, 37° C.): ~4.7 min
CCn1cc(C(=O)O)c(=O)c2ccc(C)nc21 [Nalidixic acid] | – | – | – | – | – | – | MIC (Escherichia coli MG1655; MG1655, read-out: MIC in LB): 256 µg/mL (≈ 1100 µM); MIC (Escherichia coli MG1655; MG1655, read-out: MIC in MOPS glucose 0.4%): 256 µg/mL (≈ 1100 µM); Lag time before ATP ([1]; antibiotic at 16 μg/mL, LB, 37° C.): 127.3 min; Lag time before ATP ([1]; antibiotic at 32 μg/mL, LB, 37° C.): 114.1 min; Lag time before ATP ([1]; antibiotic at 64 μg/mL, LB, 37° C.): 88.9 min; Lag time before ATP ([1]; antibiotic at 128 μg/mL, LB, 37° C.): 79.1 min; Lag time before ATP ([1]; antibiotic at 258 μg/mL, LB, 37° C.): 50.8 min; Lag time before ATP ([1]; antibiotic at 516 μg/mL, LB, 37° C.): 46.4 min
